Experimental data published in PMC6540747 (The AAPS journal, 2017).

Experiments:
[1] = tested on: gut MPS and liver MPS on-platform; assay: Drug and metabolite concentration-time profiles on the multi-MPS platform; format: in vitro ADME, human; conditions: Gut only arm
liver MPS cells = assay: Liver MPS intracellular accumulation; format: in vitro ADME, human; conditions: 72h after dosing; Gut / Liver and Liver only arms
human hepacyte cultures = conditions: human hepatocyte cultures; cited from earlier work
[2] = fixed model parameter, same value in all arms; cited from earlier work
[3] = Intrinsic metabolic clearance of the liver MPS on the multi-MPS platform; format: in vitro ADME, human; conditions: human
[4] = tested on: liver MPS (human primary cryopreserved hepatocytes and Kupffer cells); assay: as above; format: in vitro ADME; conditions: posterior mean (SD)
[5] = LiverChip technology; cited from earlier work

| SMILES | 4-OH-DCF levels (mixing chamber concentration) ([1]; after 40 μM DCF dose) [µM] | intracellular accumulation in liver MPS (Kp, cells vs liver compartment medium) (liver MPS cells) | Clintl (human hepacyte cultures) [μL/min/10^6 cells] | time at which concentration-time profiles reach a plateau ([1]; after the dose) | fum (DCF fraction unbound in circulating common medium) [2] | hepatocyte CLint at 40 μM [3] [µL/min/1e6 cells] | CLintl (intrinsic metabolic DCF clearance of the liver MPS) ([4]; Gut / Liver arm, 40 μM DCF to gut apical side) | CLintl (intrinsic metabolic DCF clearance of the liver MPS) ([4]; Liver only arm, 40 μM DCF to mixing chamber) | non-specific binding to PSF [5] |
| --- | --- | --- | --- | --- | --- | --- | --- | --- | --- |
| O=C(O)Cc1ccccc1Nc1c(Cl)cc(O)cc1Cl [4-OH-DCF, 4-hydroxy-diclofenac] | < 0.05 | substantial | – | – | – | – | – | – | – |
| O=C(O)Cc1ccccc1Nc1c(Cl)cccc1Cl [DCF, diclofenac] | – | substantial | 17.8 | approximately 24 hours | 0.13 | 17 | 10.18 (0.46) μL/min | 8.99 (0.20) μL/min | absence of non-specific binding |
